From ChEMBL document CHEMBL1132128, “Novel halogenated sulfonamides inhibit the growth of multidrug resistant MCF-7/ADR cancer cells” (1999) come the findings set out here.

Where only a bound is given, the exact number is not on record here.

Type in all cases: functional
One assay has as its system HeLa. As to the kind of experiment: Cytotoxic activity against human cervical adenocarcinoma-derived HeLa cell lines.
A further assay deals with MCF7. Description: Cytotoxic activity against human breast tumor-derived MCF-7 cell lines.
Another assay has as its system NCI/ADR-RES. As to the kind of experiment: Cytotoxic activity against MCF-7/ADR cell lines. The note with it: Homo sapiens.

As to `COc1ccc(NS(=O)(=O)c2c(F)c(F)cc(F)c2F)cc1`, the GI50 in the assay with HeLa, in the assay on MCF7 and in the assay with NCI/ADR-RES was above 50000 nM each time.
For the molecule `COc1ccc(NS(=O)(=O)c2ccc(F)c(F)c2F)cc1`, the 50% growth inhibitory concentration (GI50) with HeLa, with MCF7 and in the assay with NCI/ADR-RES was above 50000 nM in each case.
For `COc1ccc(NS(=O)(=O)c2c(F)c(F)c(Br)c(F)c2F)cc1`, the 50% growth inhibitory concentration (GI50) is 17000 nM with HeLa, 36000 nM in the assay with MCF7 and 21000 nM in the assay on NCI/ADR-RES.
Regarding `COc1ccc(NS(=O)(=O)c2c(F)c(F)c(F)c(Br)c2F)cc1`, the GI50 turned out to be 220 nM in the assay with HeLa, 270 nM with MCF7 and 190 nM with NCI/ADR-RES.
Regarding `COc1ccc(NS(=O)(=O)c2c(F)cc(F)cc2F)cc1`, the GI50 with HeLa, in the assay on MCF7 and in the assay on NCI/ADR-RES was above 50000 nM throughout.
Regarding `COc1ccc(NS(=O)(=O)c2cc(F)c(F)c(F)c2F)cc1`, the GI50 with HeLa is 370 nM; with MCF7 it was 120 nM; in the assay with NCI/ADR-RES, 400 nM.
Turning to `COc1ccc(NS(=O)(=O)c2c(F)cc(F)c(F)c2F)cc1`, the GI50 in the assay on HeLa is 5800 nM; in the assay with MCF7, 4500 nM; with NCI/ADR-RES it was 4500 nM.
Regarding `COc1ccc(NS(=O)(=O)c2cc(F)c(F)c(F)c2)cc1`, the GI50 with HeLa is 3900 nM; in the assay with MCF7 it was 2000 nM; in the assay on NCI/ADR-RES, 3400 nM.
Consider `COc1ccc(NS(=O)(=O)c2c(F)c(F)c(F)c(F)c2Br)cc1`, for which the results for the GI50 in the assay with HeLa, with MCF7 and in the assay with NCI/ADR-RES were 160 nM, 39 nM and 160 nM, respectively.
For the molecule `COc1ccc(NS(=O)(=O)c2cc(F)c(Cl)c(F)c2F)cc1`, the GI50 with HeLa was determined as 21000 nM; with MCF7, 44000 nM; in the assay on NCI/ADR-RES, 22000 nM.
On to `COc1ccc(NS(=O)(=O)c2c(F)c(F)c(F)c(F)c2F)cc1`, for which the results for the 50% growth inhibitory concentration (GI50) in the assay on HeLa, in the assay on MCF7 and in the assay with NCI/ADR-RES were 99 nM, 29 nM and 58 nM, respectively.
On to `COc1ccc(NS(=O)(=O)c2c(F)c(Cl)c(F)c(Cl)c2F)cc1`, for which the 50% growth inhibitory concentration (GI50) was determined as 96 nM in the assay on HeLa, 37 nM in the assay with MCF7 and 58 nM in the assay on NCI/ADR-RES.
The corresponding values for `CC(=O)O[C@H]1C(=O)[C@@]2(C)[C@H]([C@H](OC(=O)c3ccccc3)[C@]3(O)C[C@H](OC(=O)[C@H](O)[C@@H](NC(=O)c4ccccc4)c4ccccc4)C(C)=C1C3(C)C)[C@]1(OC(C)=O)CO[C@@H]1C[C@@H]2O` [PACLITAXEL] are 7 nM, 1.1 nM and above 50000 nM.
